The values that follow come from ChEMBL document CHEMBL4732160, “Design and synthesis of 7-O-1,2,3-triazole hesperetin derivatives to relieve inflammation of acute liver injury in mice” (Eur J Med Chem, 2021).

Activity calls are given as the source filed them. The calls are words filed in the database; no cut-off is given here.

Series [1] relates to RAW264.7. As to the kind of experiment: Antiinflammatory activity in mouse RAW264.7 cells assessed as inhibition of LPS-induced NO production at 10 uM preincubated for 2 hrs followed by LPS stimulation and measured after 24 hrs by Griess method relative to control. The class given is functional. The note with it: time 26 hrs. (The Griess reaction detects nitrite, a stable product of nitric oxide.)

Series [2] concerns RAW264.7. Put plainly: Antiinflammatory activity in mouse RAW264.7 cells assessed as inhibition of LPS-induced IL6 production at 10 uM preincubated for 1 hr followed by LPS stimulation and measured after 22 hrs by ELISA. It counts as functional, cell-based. The note with it: time 23.0 hrs.
Series [3] deals with RAW264.7. Put plainly: Antiinflammatory activity in mouse RAW264.7 cells assessed as inhibition of LPS-induced IL1beta production at 10 uM preincubated for 1 hr followed by LPS stimulation and measured after 22 hrs by ELISA. It counts as functional, cell-based. The note with it: time 23.0 hrs. In general terms: In an ELISA, binding on a coated surface is turned into a signal by an enzyme label.

Series [4] relates to RAW264.7. Put plainly: Antiinflammatory activity in mouse RAW264.7 cells assessed as inhibition of LPS-induced TNFalpha production at 10 uM preincubated for 1 hr followed by LPS stimulation and measured after 22 hrs by ELISA. The note with it: time 23.0 hrs. The class given is functional, cell-based.
The test system of series [5] is RAW264.7. As to the kind of experiment: Antiinflammatory activity in mouse RAW264.7 cells assessed as inhibition of LPS-induced NO production preincubated for 2 hrs followed by LPS stimulation and measured after 24 hrs by Griess method. The class given is functional, cell-based.
A short description of series [6]: Cytotoxicity against mouse RAW264.7 cells assessed as cell viability at 40 uM measured after 24 hrs by MTT assay relative to control. It counts as cell-based.

For orientation: inhibition means how much of the control response was suppressed. One may read the IC50 as the point on the concentration scale where inhibition reaches its midpoint. For orientation: viability means a read-out of living cells in per cent, often relative to untreated cells. Take `COc1ccc([C@@H]2CC(=O)c3c(O)cc(OCc4cn(Cc5cccc(C#N)c5)nn4)cc3O2)cc1O`: the inhibition at 10 µM in series [1] was found to be 32.9%. Also, the inhibition result in series [2], in series [3] and in series [4] was “Active” throughout. Besides, in series [5], the IC50 was found to be 18 µM. Besides, the viability at 24 h, 40 µM in series [6] was 56%.
On to `C#CCOc1cc(O)c2c(c1)O[C@H](c1ccc(OC)c(O)c1)C/C2=N\O`, for which the inhibition at 10 µM in series [1] was determined as 38.7%. For the same compound, the IC50 in series [5] amounted to 19.1 µM.
Regarding `COc1ccc([C@@H]2CC(=O)c3c(O)cc(OCc4cn(Cc5ccccc5C(F)(F)F)nn4)cc3O2)cc1O`, the inhibition at 10 µM in series [1] was 48%. Also, the inhibition result in series [2], in series [3] and in series [4] was “Active” throughout. The IC50 in series [5] is 12.5 µM. Besides, the viability at 24 h, 40 µM in series [6] stood at 135%.
For the compound `COc1ccc([C@@H]2C/C(=N\O)c3c(O)cc(OCc4cn(CC5CC5)nn4)cc3O2)cc1O`, the inhibition at 10 µM in series [1] amounted to 67%. For the same compound, the inhibition entry in series [2], in series [3] and in series [4] was “Active” each time. For the same compound, the IC50 in series [5] was found to be 6.32 µM. In addition, the viability at 24 h, 40 µM in series [6] worked out at 86%.
As for `COc1ccc([C@@H]2CC(=O)c3c(O)cc(OCc4cn(Cc5cccc(C(F)(F)F)c5)nn4)cc3O2)cc1O`, in series [1], the inhibition at 10 µM was 35.5%. Also, the inhibition entry in series [2], in series [3] and in series [4] was “Active” throughout. Also, in series [5], the IC50 was 19.9 µM. For the same compound, in series [6], the viability at 24 h, 40 µM amounted to 93%.
For `COc1ccc([C@@H]2CC(=O)c3c(O)cc(OCc4cn(C5CCCCC5)nn4)cc3O2)cc1O`, in series [1], the inhibition at 10 µM was 42.4%. Moreover, the inhibition entry in series [2], in series [3] and in series [4] was “Active” in each case. For the same compound, the IC50 in series [5] worked out at 15.6 µM. Moreover, the viability at 24 h, 40 µM in series [6] came to 124%.
Regarding `COc1ccc([C@@H]2CC(=O)c3c(O)cc(OCc4cn(Cc5ccccc5)nn4)cc3O2)cc1O`, the inhibition at 10 µM in series [1] came to 49.8%. The inhibition result in series [2], in series [3] and in series [4] was “Active” in each case. For the same compound, the IC50 in series [5] came to 11 µM. The viability at 24 h, 40 µM in series [6] stood at 98%.
For the compound `COc1ccc([C@@H]2CC(=O)c3c(O)cc(OCc4cn(CC5CC5)nn4)cc3O2)cc1O`, the inhibition at 10 µM in series [1] was 48.8%. Also, the inhibition result in series [2], in series [3] and in series [4] was “Active” throughout. Besides, the IC50 in series [5] turned out to be 11.9 µM. In series [6], the viability at 24 h, 40 µM was found to be 87%.
Take `COc1ccc([C@@H]2CC(=O)c3c(O)cc(OCc4cn(CC(=O)c5ccccc5Cl)nn4)cc3O2)cc1O`: the inhibition at 10 µM in series [1] worked out at 34.1%. Further, the inhibition result in series [2], in series [3] and in series [4] was “Active” in each case. For the same compound, in series [5], the IC50 turned out to be 13.2 µM. In addition, the viability at 24 h, 40 µM in series [6] worked out at 99%.
For the compound `COc1ccc([C@@H]2C/C(=N\O)c3c(O)cc(OCc4cn(Cc5ccccc5Cl)nn4)cc3O2)cc1O`, the inhibition at 10 µM in series [1] is 33%. Also, the inhibition entry in series [2], in series [3] and in series [4] was “Active” each time. Also, the IC50 in series [5] came to 13.3 µM. The viability at 24 h, 40 µM in series [6] is 86%.
For `COc1ccc2c(c1)c(CC(=O)O)c(C)n2C(=O)c1ccc(Cl)cc1` [INDOMETHACIN], the inhibition entry in series [2], in series [3] and in series [4] was “Active” each time. Moreover, in series [6], the viability at 24 h, 40 µM was 87%.
`Cc1ccc(-c2cc(C(F)(F)F)nn2-c2ccc(S(N)(=O)=O)cc2)cc1` [CELECOXIB]: the inhibition entry in series [2], in series [3] and in series [4] was “Active” each time. In addition, in series [6], the viability at 24 h, 40 µM is 83%.
Turning to `C#CCOc1cc(O)c2c(c1)O[C@H](c1ccc(OC)c(O)c1)CC2=O`, in series [1], the inhibition at 10 µM was found to be 35.2%. Moreover, the IC50 in series [5] was found to be 20.9 µM.
